Results as given in PMC8213057, “Targeting ALK2: An Open Science Approach to Developing Therapeutics for the Treatment of Diffuse Intrinsic Pontine Glioma” (Journal of Medicinal Chemistry, 2020).
Several values for one entry are separate records, joined by “and”; a condition that tells them apart may be missing. Equal entries are not always repeated.

Key:
CDK6/cyclin D3 = CDK6/cyclin D3 (Homo sapiens, UniProt Q00534); conditions: 1 μM; Run 1, Run 2
SNRK = biological target: T1, SNRK (Homo sapiens, UniProt Q9NRH2); conditions: 1 μM; Run 1, Run 2
T1 sequence (Q9NRH2 1-765): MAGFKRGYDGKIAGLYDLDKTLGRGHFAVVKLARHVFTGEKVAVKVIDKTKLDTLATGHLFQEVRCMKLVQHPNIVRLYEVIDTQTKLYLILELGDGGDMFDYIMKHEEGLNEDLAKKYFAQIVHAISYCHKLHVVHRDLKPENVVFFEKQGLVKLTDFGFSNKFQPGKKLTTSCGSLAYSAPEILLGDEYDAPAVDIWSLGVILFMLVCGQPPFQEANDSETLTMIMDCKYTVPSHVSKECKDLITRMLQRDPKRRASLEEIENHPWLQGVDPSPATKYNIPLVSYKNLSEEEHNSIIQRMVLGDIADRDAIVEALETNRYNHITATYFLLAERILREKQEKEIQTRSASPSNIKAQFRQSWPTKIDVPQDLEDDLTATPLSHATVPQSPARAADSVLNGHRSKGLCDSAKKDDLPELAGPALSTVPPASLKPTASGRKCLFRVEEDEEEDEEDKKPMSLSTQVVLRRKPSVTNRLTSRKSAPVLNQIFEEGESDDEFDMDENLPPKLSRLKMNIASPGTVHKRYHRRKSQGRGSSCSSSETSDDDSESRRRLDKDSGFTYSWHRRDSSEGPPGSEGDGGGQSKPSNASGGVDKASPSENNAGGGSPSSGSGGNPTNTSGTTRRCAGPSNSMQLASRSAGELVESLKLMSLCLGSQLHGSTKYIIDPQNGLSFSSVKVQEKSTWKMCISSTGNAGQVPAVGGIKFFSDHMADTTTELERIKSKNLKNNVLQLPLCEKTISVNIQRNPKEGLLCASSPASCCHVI

CHK2 = CHK2 (Homo sapiens, UniProt O96017); conditions: 1 μM; Run 1, Run 2
P38b/MAPK11 = P38b/MAPK11 (Homo sapiens, UniProt Q15759); experiment: biochemical; conditions: read-out: % enzyme activity, 1 μM; Run 1, Run 2
BTK = BTK (Homo sapiens, UniProt Q06187); conditions: 1 μM; Run 1, Run 2
ASK1/MAP3K5 = biological target: T2, ASK1/MAP3K5 (Homo sapiens, UniProt Q99683); experiment: biochemical; conditions: read-out: % enzyme activity, 1 μM; Run 1, Run 2
T2 sequence (Q99683 1-1374): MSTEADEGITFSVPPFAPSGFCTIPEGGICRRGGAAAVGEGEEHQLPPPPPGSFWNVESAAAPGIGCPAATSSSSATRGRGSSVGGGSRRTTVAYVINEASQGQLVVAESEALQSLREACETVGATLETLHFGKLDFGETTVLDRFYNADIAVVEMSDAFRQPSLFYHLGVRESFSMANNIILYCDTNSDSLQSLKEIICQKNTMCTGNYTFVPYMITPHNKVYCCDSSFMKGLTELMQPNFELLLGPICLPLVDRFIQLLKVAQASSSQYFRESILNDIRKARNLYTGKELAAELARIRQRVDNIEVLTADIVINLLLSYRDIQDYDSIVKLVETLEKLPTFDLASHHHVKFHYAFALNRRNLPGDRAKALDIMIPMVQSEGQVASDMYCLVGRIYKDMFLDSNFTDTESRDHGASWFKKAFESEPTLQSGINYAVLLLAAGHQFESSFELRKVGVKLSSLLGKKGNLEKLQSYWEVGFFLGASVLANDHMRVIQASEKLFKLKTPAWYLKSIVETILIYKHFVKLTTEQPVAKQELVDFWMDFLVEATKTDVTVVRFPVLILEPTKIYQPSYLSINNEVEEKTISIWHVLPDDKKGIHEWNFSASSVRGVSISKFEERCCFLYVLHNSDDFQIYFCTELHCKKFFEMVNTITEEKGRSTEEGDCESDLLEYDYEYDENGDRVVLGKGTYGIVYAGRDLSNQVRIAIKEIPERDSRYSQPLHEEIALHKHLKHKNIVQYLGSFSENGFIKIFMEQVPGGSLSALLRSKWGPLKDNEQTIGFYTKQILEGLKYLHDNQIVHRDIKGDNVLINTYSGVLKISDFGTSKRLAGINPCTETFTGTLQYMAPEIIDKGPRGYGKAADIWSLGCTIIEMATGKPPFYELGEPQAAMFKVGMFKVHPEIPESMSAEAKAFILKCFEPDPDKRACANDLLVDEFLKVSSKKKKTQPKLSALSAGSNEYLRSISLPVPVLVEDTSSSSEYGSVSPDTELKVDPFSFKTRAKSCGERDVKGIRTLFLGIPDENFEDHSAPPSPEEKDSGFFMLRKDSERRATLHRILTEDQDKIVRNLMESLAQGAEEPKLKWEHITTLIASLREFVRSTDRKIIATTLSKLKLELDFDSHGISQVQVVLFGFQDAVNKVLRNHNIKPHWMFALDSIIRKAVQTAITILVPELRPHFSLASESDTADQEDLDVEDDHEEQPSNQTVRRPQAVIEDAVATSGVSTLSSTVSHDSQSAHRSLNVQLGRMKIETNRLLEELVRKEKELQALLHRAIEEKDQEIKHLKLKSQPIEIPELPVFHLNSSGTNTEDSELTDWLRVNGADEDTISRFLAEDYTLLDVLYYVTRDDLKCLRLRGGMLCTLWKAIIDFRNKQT

CLK2 = CLK2 (Homo sapiens, UniProt P49760); experiment: biochemical; conditions: read-out: % enzyme activity, 1 μM; Run 1, Run 2
CDK2/cyclin E2 = CDK2/cyclin E2 (Homo sapiens, UniProt P24941); conditions: 1 μM; Run 1, Run 2
SSTK/TSSK6 = SSTK/TSSK6 (Homo sapiens, UniProt Q9BXA6); conditions: 1 μM; Run 1, Run 2
SSTK/TSSK6, sequence (Q9BXA6 whole entry): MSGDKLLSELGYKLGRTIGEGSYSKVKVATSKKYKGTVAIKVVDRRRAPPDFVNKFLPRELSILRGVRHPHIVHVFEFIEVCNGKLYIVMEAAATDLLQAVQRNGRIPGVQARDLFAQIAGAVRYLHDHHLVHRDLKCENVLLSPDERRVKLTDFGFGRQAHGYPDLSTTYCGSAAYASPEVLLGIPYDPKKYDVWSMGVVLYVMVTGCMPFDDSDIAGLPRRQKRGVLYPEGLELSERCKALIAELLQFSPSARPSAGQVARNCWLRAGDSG

CDK6/cyclin D3, sequence (Q00534 whole entry): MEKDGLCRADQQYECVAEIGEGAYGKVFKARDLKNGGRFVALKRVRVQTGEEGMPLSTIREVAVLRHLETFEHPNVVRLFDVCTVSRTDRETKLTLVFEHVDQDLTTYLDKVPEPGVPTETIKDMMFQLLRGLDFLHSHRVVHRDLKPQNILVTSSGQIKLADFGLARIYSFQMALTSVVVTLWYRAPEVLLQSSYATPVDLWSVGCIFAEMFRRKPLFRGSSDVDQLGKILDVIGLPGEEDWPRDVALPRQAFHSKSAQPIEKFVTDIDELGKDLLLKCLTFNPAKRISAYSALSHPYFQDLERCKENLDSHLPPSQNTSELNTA
CDK6/cyclin D3, sequence (P30281 whole entry partner): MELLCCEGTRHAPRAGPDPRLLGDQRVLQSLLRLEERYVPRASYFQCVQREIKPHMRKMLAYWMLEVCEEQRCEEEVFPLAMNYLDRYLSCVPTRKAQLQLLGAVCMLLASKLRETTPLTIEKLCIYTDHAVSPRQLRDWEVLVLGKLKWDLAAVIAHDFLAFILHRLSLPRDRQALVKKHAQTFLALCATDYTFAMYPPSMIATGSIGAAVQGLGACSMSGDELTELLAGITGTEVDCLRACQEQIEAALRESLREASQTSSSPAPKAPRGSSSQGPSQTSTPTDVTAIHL
BTK, sequence (Q06187 whole entry): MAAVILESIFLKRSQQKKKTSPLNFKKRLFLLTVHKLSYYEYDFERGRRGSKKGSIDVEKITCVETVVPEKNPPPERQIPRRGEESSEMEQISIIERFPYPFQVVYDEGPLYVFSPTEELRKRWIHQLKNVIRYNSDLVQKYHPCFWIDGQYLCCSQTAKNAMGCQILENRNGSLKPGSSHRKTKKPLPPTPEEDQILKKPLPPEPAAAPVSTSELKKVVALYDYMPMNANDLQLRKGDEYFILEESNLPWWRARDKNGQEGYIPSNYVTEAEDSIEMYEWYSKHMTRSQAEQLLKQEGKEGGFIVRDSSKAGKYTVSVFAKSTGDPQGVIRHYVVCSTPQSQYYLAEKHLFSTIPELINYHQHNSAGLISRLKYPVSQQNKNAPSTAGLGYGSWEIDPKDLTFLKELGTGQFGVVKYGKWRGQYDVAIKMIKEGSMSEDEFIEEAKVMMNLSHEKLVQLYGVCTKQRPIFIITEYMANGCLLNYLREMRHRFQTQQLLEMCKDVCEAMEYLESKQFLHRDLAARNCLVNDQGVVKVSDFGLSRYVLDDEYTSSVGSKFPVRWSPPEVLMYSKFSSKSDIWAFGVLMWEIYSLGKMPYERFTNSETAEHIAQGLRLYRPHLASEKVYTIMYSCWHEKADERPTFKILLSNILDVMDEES
CHK2, sequence (O96017 whole entry): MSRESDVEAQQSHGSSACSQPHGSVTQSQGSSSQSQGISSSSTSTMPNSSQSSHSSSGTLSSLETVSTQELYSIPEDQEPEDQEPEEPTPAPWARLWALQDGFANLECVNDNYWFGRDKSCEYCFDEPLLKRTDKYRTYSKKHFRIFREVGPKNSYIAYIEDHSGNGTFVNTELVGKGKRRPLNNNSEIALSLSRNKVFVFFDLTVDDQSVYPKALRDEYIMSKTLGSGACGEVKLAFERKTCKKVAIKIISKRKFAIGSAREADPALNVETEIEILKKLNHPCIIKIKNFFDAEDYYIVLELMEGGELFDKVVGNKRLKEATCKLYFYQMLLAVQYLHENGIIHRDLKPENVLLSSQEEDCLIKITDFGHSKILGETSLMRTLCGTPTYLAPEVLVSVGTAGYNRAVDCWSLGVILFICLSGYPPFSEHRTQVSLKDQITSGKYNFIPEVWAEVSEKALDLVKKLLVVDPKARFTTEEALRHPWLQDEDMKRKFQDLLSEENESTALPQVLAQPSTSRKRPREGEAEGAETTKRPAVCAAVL
CLK2, sequence (P49760 whole entry): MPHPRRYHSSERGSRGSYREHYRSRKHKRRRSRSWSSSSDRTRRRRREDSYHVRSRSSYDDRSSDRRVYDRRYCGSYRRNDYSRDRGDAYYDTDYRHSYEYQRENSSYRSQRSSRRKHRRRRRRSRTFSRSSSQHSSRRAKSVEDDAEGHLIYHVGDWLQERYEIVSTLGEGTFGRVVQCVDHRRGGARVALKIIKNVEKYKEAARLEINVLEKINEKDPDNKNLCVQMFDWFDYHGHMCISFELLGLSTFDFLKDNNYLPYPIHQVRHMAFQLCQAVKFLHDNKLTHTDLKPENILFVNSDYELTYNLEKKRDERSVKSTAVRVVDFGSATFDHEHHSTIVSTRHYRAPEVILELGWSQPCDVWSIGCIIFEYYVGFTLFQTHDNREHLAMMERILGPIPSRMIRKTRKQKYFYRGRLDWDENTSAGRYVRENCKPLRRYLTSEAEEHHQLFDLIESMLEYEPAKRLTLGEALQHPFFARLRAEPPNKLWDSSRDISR
P38b/MAPK11, sequence (Q15759 whole entry): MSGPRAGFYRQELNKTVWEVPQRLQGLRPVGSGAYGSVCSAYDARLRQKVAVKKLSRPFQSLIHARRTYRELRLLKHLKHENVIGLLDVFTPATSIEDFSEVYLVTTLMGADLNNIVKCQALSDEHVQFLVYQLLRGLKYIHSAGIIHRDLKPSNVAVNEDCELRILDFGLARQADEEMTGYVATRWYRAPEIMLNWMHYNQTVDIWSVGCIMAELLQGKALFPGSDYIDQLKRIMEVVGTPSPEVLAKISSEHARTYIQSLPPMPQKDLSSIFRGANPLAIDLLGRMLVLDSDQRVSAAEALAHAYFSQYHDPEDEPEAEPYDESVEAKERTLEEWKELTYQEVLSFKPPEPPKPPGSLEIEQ

SMILES | % enzyme activity (CDK6/cyclin D3) [%] | % enzyme activity (SNRK) [%] | % enzyme activity (CHK2) [%] | remaining activity at 1 µM (P38b/MAPK11) [%] | % enzyme activity (BTK) [%] | remaining activity at 1 µM (ASK1/MAP3K5) [%] | remaining activity at 1 µM (CLK2) [%] | % enzyme activity (CDK2/cyclin E2) [%] | % enzyme activity at 1 μM (HGK/MAP4K4) | % enzyme activity (SSTK/TSSK6) [%]
COc1cc(-c2cncc(-c3ccc(N4CCN(C)CC4)cc3)c2C)cc(F)c1C(N)=O [Compound 26a, 2-Fluoro-6-methoxy-4-(4-methyl-5-(4-(4-methylpiperazin-1-yl)phenyl)pyridin-3-yl)benzamide] | 86.25 | 104.94 | 99.41 | 92.3 | 94.35 | 95.5 | 91.7 | 104.96 | 22% and 21% | 107.86
COc1cc(-c2cncc(-c3ccc(N4C[C@@H](C)N(C)[C@@H](C)C4)cc3)c2C)cc(F)c1C(N)=O [Compound 26c, 2-Fluoro-6-methoxy-4-(4-methyl-5-(4-((3R,5S)-3,4,5-trimethylpiperazin-1-yl)phenyl)pyridin-3-yl)benzamide] | 102.19 | 97.75 | 101.19 | 95.5 | 94.07 | 97.8 | 90.3 | 93.14 | 30.6% and 28.4% | 98.04
